Measured values published in patent US10889616B2, “Cytotoxic tubulysin compounds for conjugation” (priority 2014, dated 2021).
Starred links: 1 amine or outer side, 2 acyl side, 3 side chain; linkers in the order of their positions; H or OH if unused. Non-standard residues stand in square brackets, D forms with d. Residues, ends and D or L forms follow the SMILES beside them. *: point of attachment. NPrTuv(OPr) = CCCO[C@H](C[C@H](C(C)C)N(CCC)[*:1])c1nc(C(=O)[*:2])cs1; Hexanoyl(6-maleimido) = O=C1C=CC(=O)N1CCCCCC(=O)*; X1 = C[C@@H](C[C@H](Cc1ccccc1)N*)C(=O)O; PABC = O=C(OCc1ccc(N[*:1])cc1)[*:2]; NMeI = CC[C@H](C)[C@H](NC)C(=O)O; Cit = NC(=O)NCCC[C@H](N)C(=O)O

Tests used:
Type in all cases: cell-based
HEK293 = assay: cytotoxic activity, IC50 against HEK293 cells; settings: Homo sapiens
MDA-MB-468 = assay: cytotoxic activity, IC50 against MDA-MB-468 cells; settings: Homo sapiens
SK-N-MC = assay: cytotoxic activity, IC50 against SK-N-MC cells; settings: Homo sapiens
MCF7 = assay: cytotoxic activity, IC50 against MCF7 cells; settings: Homo sapiens; MCF7 / MCF-7 cells
BT474 = assay: cytotoxic activity, IC50 against BT474 cells; settings: Homo sapiens; BT474 / BT-474 cells
T47D = assay: cytotoxic activity, IC50 against T47D cells; settings: Homo sapiens; T47D / T-47D cells
SKBR3 = assay: cytotoxic activity, IC50 against SKBR3 cells; settings: Homo sapiens, SK-BR-3
[1] = IC50 as ADC with Herceptin and DAR 2; settings: compound conjugated to Herceptin, DAR 2; cell line not given
HT29 = assay: cytotoxic activity, IC50 against HT29 cells; settings: Homo sapiens; HT29 / HT-29 cells
HT1080 = assay: cytotoxic activity, IC50 against HT1080 cells; settings: Homo sapiens, HT-1080
A2780 = assay: cytotoxic activity, IC50 against A2780 cells; settings: Homo sapiens
NCl-H1299 = assay: cytotoxic activity, IC50 against NCl-H1299 cells

| SMILES | IC50 (MDA-MB-468) | IC50 (SK-N-MC) | IC50 (MCF7) | IC50 (BT474) | further results |
| --- | --- | --- | --- | --- | --- |
| CCCO[C@H](C[C@H](C(C)C)N(CCC)C(=O)[C@@H](NC(=O)[C@H]1CCCCN1C)[C@@H](C)CC)c1nc(C(=O)N[C@@H](Cc2ccc(OC(=O)NCCOCCOCCN)cc2)C[C@H](C)C(=O)O)cs1 [TAM371] | 0.13 nM | < 0.01 nM | – | – | IC50 (HEK293): 0.1 nM |
| CCCO[C@H](C[C@H](C(C)C)N(CCC)C(=O)[C@@H](NC(=O)[C@@H](NC)[C@@H](C)CC)[C@@H](C)CC)c1nc(C(=O)N[C@@H](Cc2ccccc2)C[C@H](C)C(=O)O)cs1 [TAM491] | 2.68 nM | 4.57 nM | 1.77 nM | 1.84 nM | – |
| CCCO[C@H](C[C@H](C(C)C)N(CCC)C(=O)[C@@H](NC(=O)[C@H]1CCCCN1C)[C@@H](C)CC)c1nc(C(=O)N[C@@H](Cc2ccc(OCCCCN)cc2)C[C@H](C)C(=O)O)cs1 [TAM486] | 81.5 nM | 48.5 nM | 57.5 nM | 50.9 nM | IC50 (T47D): 142 nM |
| CCCO[C@H](C[C@H](C(C)C)N(CCC)C(=O)[C@@H](NC(=O)[C@H]([C@@H](C)CC)N(C)C)[C@@H](C)CC)c1nc(C(=O)N[C@@H](Cc2ccccc2)C[C@H](C)C(=O)O)cs1 [TAM522] | 2 nM | 1.54 nM | – | 0.98 nM | – |
| CCCO[C@H](C[C@H](C(C)C)N(CCC)C(=O)[C@@H](NC(=O)[C@H]1CCCCN1C)[C@@H](C)CC)c1nc(C(=O)N[C@@H](Cc2ccc(O)cc2)C[C@H](C)C(=O)NNC(=O)OCCOCCOCCN)cs1 [TAM375] | 25.8 nM | – | – | – | IC50 (HEK293): 34.6 nM; IC50 (SKBR3): 18.8 nM |
| CCCO[C@H](C[C@H](C(C)C)N(CCC)C(=O)[C@@H](NC(=O)[C@H]1CCCCN1C)[C@@H](C)CC)c1nc(C(=O)N[C@@H](Cc2ccccc2)C[C@H](C)C(=O)NN)cs1 [TPM320] | – | 16 nM | – | 11 nM | – |
| CCCO[C@H](C[C@H](C(C)C)N(CCC)C(=O)[C@@H](NC(=O)[C@H]1CCCCN1C)[C@@H](C)CC)c1nc(C(=O)N[C@@H](Cc2ccccc2)C[C@H](C)C(=O)NNC(=O)OCCOCCN)cs1 [TAM523] | 221 nM | 150 nM | 92.1 nM | 65 nM | – |
| CCCO[C@H](C[C@H](C(C)C)N(CCC)C(=O)[C@@H](NC(=O)[C@H](NC)[C@@H](C)CC)[C@@H](C)CC)c1nc(C(=O)N[C@@H](Cc2ccc(O)cc2)C[C@H](C)C(=O)O)cs1 [TAM610] | 0.3 nM | 0.1 nM | 0.2 nM | 0.1 nM | – |
| CCCO[C@H](C[C@H](C(C)C)N(CCC)C(=O)[C@@H](NC(=O)[C@@H](NC)[C@@H](C)CC)[C@@H](C)CC)c1nc(C(=O)N[C@@H](Cc2ccc(O)cc2)C[C@H](C)C(=O)OC)cs1 [TAM598] | 5.15 nM | 6.74 nM | 4.39 nM | – | IC50 (T47D): 8.17 nM |
| CCCO[C@H](C[C@H](C(C)C)N(CCC)C(=O)[C@@H](NC(=O)[C@H](NC)[C@@H](C)CC)[C@@H](C)CC)c1nc(C(=O)N[C@@H](Cc2ccc(O)cc2)C[C@H](C)C(=O)OC)cs1 [TAM609] | 3.32 nM | 2.12 nM | 2.17 nM | 0.5 nM | – |
| CCCO[C@H](C[C@H](C(C)C)N(CCO)C(=O)[C@@H](NC(=O)[C@H]1CCCCN1C)[C@@H](C)CC)c1nc(C(=O)N[C@@H](Cc2ccc(O)cc2)C[C@H](C)C(=O)O)cs1 [TAM608] | 2.24 nM | 1.54 nM | 4.06 nM | 1.69 nM | – |
| CCCO[C@H](C[C@H](C(C)C)N(CCC)C(=O)[C@@H](NC(=O)[C@H](CC(C)C)NC)[C@@H](C)CC)c1nc(C(=O)N[C@@H](Cc2ccccc2)C[C@H](C)C(=O)OC)cs1 [TAM496] | 214 nM | 300 nM | 103 nM | 95.2 nM | – |
| CCCO[C@H](C[C@H](C(C)C)N(CCC)C(=O)[C@@H](NC(=O)[C@H]1CCCCN1C)[C@@H](C)CC)c1nc(C(=O)N[C@@H](Cc2ccc(OCCNC)cc2)C[C@H](C)C(=O)O)cs1 [TAM365] | 3.41 nM | 0.92 nM | – | – | IC50 (HEK293): 0.99 nM |
| CCCO[C@H](C[C@H](C(C)C)N(CCC)C(=O)[C@@H](NC(=O)[C@H]1CCCCN1C)[C@@H](C)CC)c1nc(C(=O)N[C@@H](Cc2ccc(O)cc2)C[C@H](C)C(=O)NNC(=O)OCCOCCN)cs1 [TAM428] | 16.8 nM | – | 20.6 nM | – | IC50 [1]: 0.219 nM; IC50 (T47D): 32 nM |
| CCCO[C@H](C[C@H](C(C)C)N(CCC)C(=O)[C@@H](NC(=O)[C@H](CC(C)C)NC)[C@@H](C)CC)c1nc(C(=O)N[C@@H](Cc2ccccc2)C[C@H](C)C(=O)O)cs1 [TAM497] | 85.6 nM | 83.3 nM | 64.3 nM | 50 nM | – |
| CCCO[C@H](C[C@H](C(C)C)N(CCC)C(=O)[C@@H](NC(=O)[C@H]1CCCCN1)[C@@H](C)CC)c1nc(C(=O)N[C@@H](Cc2ccc(O)cc2)C[C@H](C)C(=O)O)cs1 [TAM334] | – | – | – | 5.2 nM | IC50 (HT29): 12.3 nM; IC50 (SKBR3): 5.4 nM |
| CCCO[C@H](C[C@H](C(C)C)N(CCC)C(=O)[C@@H](NC(=O)[C@@H](NC)[C@@H](C)CC)[C@@H](C)CC)c1nc(C(=O)N[C@@H](Cc2ccc(O)cc2)C[C@H](C)C(=O)O)cs1 [TAM599] | 0.64 nM | 0.77 nM | 0.65 nM | – | IC50 (T47D): 1.22 nM |
| CCCO[C@H](C[C@H](C(C)C)N(CCC)C(=O)[C@@H](NC(=O)[C@H]1CCCCN1C)[C@@H](C)CC)c1nc(C(=O)N[C@@H](Cc2ccc(O)cc2)C[C@H](C)C(=O)NNC(=O)OCCOCCN=[N+]=[N-])cs1 [TAM426] | 1.71 nM | – | 1.33 nM | – | IC50 (T47D): 2 nM |
| CCCO[C@H](C[C@H](C(C)C)N(CCC)C(=O)[C@@H](NC(=O)[C@H]1CCCCN1C)[C@@H](C)CC)c1nc(C(=O)N[C@@H](Cc2ccc(O)cc2)C[C@H](C)C(=O)NCCOCCOCCOCCOCCOCCOCCN)cs1 [TAM597] | – | – | – | – | IC50 [1]: 0.172 nM |
| CCCO[C@H](C[C@H](C(C)C)N(CCC)C(=O)[C@@H](NC(=O)[C@H]1CCCCN1C)[C@@H](C)CC)c1nc(C(=O)N[C@@H](Cc2ccc(O)cc2)C[C@H](C)C(=O)NNC(=O)OCCOCCOCCOCCNC(=O)CCCCCN2C(=O)C=CC2=O)cs1 [TAM552] | – | – | – | – | IC50 (HT1080): 10 nM |
| CCCO[C@H](C[C@H](C(C)C)N(CCC)C(=O)[C@@H](NC(=O)[C@H]([C@@H](C)CC)N(C)C(=O)OCc1ccc(NC(=O)[C@H](CCCNC(N)=O)NC(=O)[C@@H](NC(=O)CCCCCN2C(=O)C=CC2=O)C(C)C)cc1)[C@@H](C)CC)c1nc(C(=O)N[C@@H](Cc2ccccc2)C[C@H](C)C(=O)O)cs1 [TAM551] ({Hexanoyl(6-maleimido)}-V[Cit][PABC][NMeI]I[NPrTuv(OPr)]-X1) | – | – | – | – | IC50 (HT1080): 90 nM |
| CCCO[C@H](C[C@H](C(C)C)N(CCC)C(=O)[C@@H](NC(=O)[C@H]([C@@H](C)CC)N(C)C)[C@@H](C)CC)c1nc(C(=O)N[C@@H](Cc2ccccc2)C[C@H](C)C(=O)OC)cs1 [TAM521] | 20 nM | 15.3 nM | 6.74 nM | 4.07 nM | – |
| CC[C@H](C)[C@H](NC(=O)[C@H]1CCCCN1C)C(=O)N(COC(=O)CC(C)C)[C@H](C[C@@H](OC(C)=O)c1nc(C(=O)N[C@@H](Cc2ccc(O)cc2)C[C@H](C)C(=O)NCCS)cs1)C(C)C [TAM674] | – | – | – | – | IC50 (A2780): 8.7 nM; IC50 (HT29): 4.4 nM; IC50 (NCl-H1299): 19 nM |
